“And” between values parts separate entries of the source, which are not always exact repeats. Equal values may be shown once.
Test system: RAW 267.4 murine macrophages
Assay: Cell viability of murine macrophages (WST-1 mitochondrial respiration), in parallel with NO release
Assay type: cell-based
Method: MURINS RAW 267.4 Macrophage cell line (Sigma-Aldrich, No. P6110401, Lot. 091006), low number of passages (less than 50).
Complete medium: DMEM with stabilized L-glutamine (Dulbecco's Minimum Essential Medium, PAN BIOTECH. Lot 974251) supplemented with Penicillin 100 IU/ml and streptomycin 100 μg/m1 (PAN BIOTECH, Lot 225614), and 10% inactivated calf serum (PAN BIOTECH, Lot P460518), pH 7.2, freshly prepared, stored for less than 3 weeks.
Cannabidiol (CBD) is diluted in DMSO (10 mg/mL storage solution), and subjected to an ultrasonic bath for 20 minutes. The Neutrazen™ solution is diluted in PBS (Phosphate buffer saline, Sigma-Aldrich).
RAW 267.4 murine macrophages were inoculated into 48-well tissue culture plates at a concentration of 1.10^5 cells/ml (200 μl/well) and incubated for 24 hours at 37° C. (5% CO2).
At the end of the incubation period, the culture medium was replaced with 200 μl of medium containing the appropriate concentrations of the material to be tested, and the cells were incubated at 37° C. (5% CO2) for one hour.
At the end of the incubation period, pro-inflammatory E. coli LPS was added to the cell cultures (1 μg/ml. Then the cells were incubated at 37° C. (5% CO2) for 24 hours.
In parallel with the evaluation of the release of NO, the cell viability was measured to validate the tests. Vital Stain Reagent WST-1 was used to measure cellular mitochondrial respiration. For this, the culture medium was decanted and 100 μl of WST-1 reagent ( 1/10 dilution) were added to each well. After an incubation period of 30 min at 37° C. (5% CO2), the Optical Density (OD) of each well was read at a wavelength of 450 nm by an Infinite M200 Pro fluorescence-luminescence reader (TECAN). The results obtained for the wells treated with the test material were compared with those of the untreated control wells (DMSO, 100% viability) and converted into percentage values.
Inhibition of NO release and inhibition of cell viability were expressed as a percentage relative to the negative controls: […]
The concentrations of test material causing a 50% decrease in NO release (IC50 (NO release)) and a 50% decrease in cell viability (IC50 (cell viability)) respectively were calculated using TableCurve software Version 2.0.
Analysis of the anti-inflammatory activity and of the cell viability of the cannabidiol/palmitoyl tripeptide-8 (Neutrazen™) association in a mixture by isobologram analysis. For each concentration of Neutrazen™ (0.01, 0.025, 0.05 and 0.1%), different concentrations of CBD are tested (0.01, 0.025, 0.05, 0.1, 0.25, 0.5, 1 and 2.5%) to determine both the production of NO and cell viability.
The results obtained with the different mixtures of CBD and Neutrazen™ made it possible to calculate the pairs of concentrations corresponding to a 50% reduction in the production of NO and a 50% reduction in cell viability.

C=C(C)[C@@H]1CCC(C)=C[C@H]1c1c(O)cc(CCCCC)cc1O [CBD]
Cell viability (% as compared to the negative control) (CBD 0.01 weight % in mixture with NeutraZen 0.01%): 99.54% and 101.55%
Cell viability (% as compared to the negative control) (CBD 0.01 weight % in mixture with NeutraZen 0.025%): 101.86%
Cell viability (% as compared to the negative control) (CBD 0.01 weight % in mixture with NeutraZen 0.05%): 101.83% and 101.55%
Cell viability (% as compared to the negative control) (CBD 0.01 weight % in mixture with NeutraZen 0.1%): 100.00%
Cell viability (% as compared to the negative control) (CBD 0.025 weight % in mixture with NeutraZen 0.01%): 99.24% and 100.77%
Cell viability (% as compared to the negative control) (CBD 0.025 weight % in mixture with NeutraZen 0.025%): 100.76% and 101.08%
Cell viability (% as compared to the negative control) (CBD 0.025 weight % in mixture with NeutraZen 0.05%): 101.22% and 100.77%
Cell viability (% as compared to the negative control) (CBD 0.025 weight % in mixture with NeutraZen 0.1%): 100.15%
Cell viability (% as compared to the negative control) (CBD 0.05 weight % in mixture with NeutraZen 0.01%): 98.93% and 100.62%
Cell viability (% as compared to the negative control) (CBD 0.05 weight % in mixture with NeutraZen 0.025%): 96.18% and 100.31%
Cell viability (% as compared to the negative control) (CBD 0.05 weight % in mixture with NeutraZen 0.05%): 100.61% and 100.62%
Cell viability (% as compared to the negative control) (CBD 0.05 weight % in mixture with NeutraZen 0.1%): 99.54% and 100.00%
Cell viability (% as compared to the negative control) (CBD 0.1 weight % in mixture with NeutraZen 0.01%): 100.00% and 102.63%
Cell viability (% as compared to the negative control) (CBD 0.1 weight % in mixture with NeutraZen 0.025%): 96.34% and 99.23%
Cell viability (% as compared to the negative control) (CBD 0.1 weight % in mixture with NeutraZen 0.05%): 100.00%
Cell viability (% as compared to the negative control) (CBD 0.1 weight % in mixture with NeutraZen 0.1%): 99.54%
Cell viability (% as compared to the negative control) (CBD 0.25 weight % in mixture with NeutraZen 0.01%): 89.77% and 93.81%
Cell viability (% as compared to the negative control) (CBD 0.25 weight % in mixture with NeutraZen 0.025%): 88.09% and 89.16%
Cell viability (% as compared to the negative control) (CBD 0.25 weight % in mixture with NeutraZen 0.05%): 100.31%
Cell viability (% as compared to the negative control) (CBD 0.25 weight % in mixture with NeutraZen 0.1%): 97.40% and 98.61%
Cell viability (% as compared to the negative control) (CBD 0.5 weight % in mixture with NeutraZen 0.01%): 7.18% and 6.81%
Cell viability (% as compared to the negative control) (CBD 0.5 weight % in mixture with NeutraZen 0.025%): 7.33% and 7.43%
Cell viability (% as compared to the negative control) (CBD 0.5 weight % in mixture with NeutraZen 0.05%): 9.16% and 7.59%
Cell viability (% as compared to the negative control) (CBD 0.5 weight % in mixture with NeutraZen 0.1%): 9.47% and 8.20%
Cell viability (% as compared to the negative control) (CBD 1 weight % in mixture with NeutraZen 0.01%): 5.95% and 5.57%
Cell viability (% as compared to the negative control) (CBD 1 weight % in mixture with NeutraZen 0.025%): 5.34% and 4.95%
Cell viability (% as compared to the negative control) (CBD 1 weight % in mixture with NeutraZen 0.05%): 7.43%
Cell viability (% as compared to the negative control) (CBD 1 weight % in mixture with NeutraZen 0.1%): 8.40% and 7.59%
Cell viability (% as compared to the negative control) (CBD 2.5 weight % in mixture with NeutraZen 0.01%): 5.65% and 4.33%
Cell viability (% as compared to the negative control) (CBD 2.5 weight % in mixture with NeutraZen 0.025%): 4.49%
Cell viability (% as compared to the negative control) (CBD 2.5 weight % in mixture with NeutraZen 0.05%): 7.79% and 6.97%
Cell viability (% as compared to the negative control) (CBD 2.5 weight % in mixture with NeutraZen 0.1%): 7.63% and 6.35%
Cell viability (% as compared to the negative control) (sample alone at 0.01 weight %): 99.69% and 100.15%
Cell viability (% as compared to the negative control) (sample alone at 0.025 weight %): 99.85% and 99.23%
Cell viability (% as compared to the negative control) (sample alone at 0.05 weight %): 94.50% and 93.81%
Cell viability (% as compared to the negative control) (sample alone at 0.1 weight %): 51.15% and 55.11%
Cell viability (% as compared to the negative control) (sample alone at 0.25 weight %): 5.65% and 5.73%
Cell viability (% as compared to the negative control) (sample alone at 0.5 weight %): 3.97% and 3.25%
Cell viability (% as compared to the negative control) (sample alone at 1 weight %): 1.98% and 1.86%

Reference: patent US20230255864A1, “NOVEL COMPOSITIONS COMBINING HEMP DERIVATIVES AND AT LEAST ONE PEPTIDE AND USE THEREOF” (FRANCE COSMEPHYL-LAB, priority 2020, published 2023)
